Experimental data as given in patent publication US20230085307A1, “PYRIDAZINONE COMPOUND AND HERBICIDE” (NISSAN CHEMICAL CORPORATION, priority 2019, published 2023).

How the values were obtained:
late watergrass = experiment: Test Example 1: herbicidal activity, application before weed generation under submerged conditions (Table 16, symbol A); type: in vivo, late watergrass (Echinochloa oryzicola)
Method in brief: (§1)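 Emulsion formulation, water-diluted to set dose, was put onto the flooded surface (4 cm depth, alluvial soil) the same day weeds were sown and 2.5-leaf rice transplanted. After 3 weeks at 25-30 °C under glass, each species was rated 0 (≤5% kill) to 5 (≥90% kill).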

Japanese bulrush = experiment: Test Example 1: herbicidal activity, application before weed generation under submerged conditions (Table 16, symbol B); type: in vivo, Japanese bulrush (Schoenoplectus juncoides)
Method in brief: as §1

oval-leafed pondweed = experiment: Test Example 1: herbicidal activity, application before weed generation under submerged conditions (Table 16, symbol C); type: in vivo, oval-leafed pondweed (Monochoria vaginalis)
Method in brief: as §1

barnyard grass [1] = experiment: Test Example 3: herbicidal effect by foliage application, Wagner pot (Table 18, symbol H); type: in vivo, barnyard grass (Echinochloa crus-galli)
Method in brief: (§2)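 Plants were sown in alluvial soil held under 0.1–0.5 cm standing water and grown 14 days in a greenhouse at 25–30 °C. An emulsifiable formulation, water-diluted to the set dose, was then sprayed onto the foliage, and effects were scored three weeks later using previously defined criteria.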

Chinese sprangletop = experiment: Test Example 3: herbicidal effect by foliage application, Wagner pot (Table 18, symbol D); type: in vivo, chinese sprangletop (Leptochloa chinensis)
Method in brief: as §2

rice flat sedge = experiment: Test Example 3: herbicidal effect by foliage application, Wagner pot (Table 18, symbol E); type: in vivo, rice flat sedge (Cyperus iria)
Method in brief: as §2

southern crabgrass [2] = experiment: Test Example 4: herbicidal effect by soil treatment (Table 19, symbol F); type: in vivo, southern crabgrass (Digitaria ciliaris)
Method in brief: (§3)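 Herbicidal effect was rated 3 weeks after treatment, using the scoring criteria of an earlier test. The compound, formulated as an emulsion and diluted in water to a set herbicide amount, had been sprayed uniformly on soil over freshly sown seeds. Growth took place in a greenhouse at 25° C. to 30° C.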

green foxtail [3] = experiment: Test Example 4: herbicidal effect by soil treatment (Table 19, symbol G); type: in vivo, green foxtail (Setaria viridis)
Method in brief: as §3

barnyard grass [4] = experiment: Test Example 4: herbicidal effect by soil treatment (Table 19, symbol H); type: in vivo, barnyard grass (Echinochloa crus-galli)
Method in brief: as §3

wild oat [5] = experiment: Test Example 4: herbicidal effect by soil treatment (Table 19, symbol I); type: in vivo, wild oat (Avena fatua)
Method in brief: as §3

blackgrass [6] = experiment: Test Example 4: herbicidal effect by soil treatment (Table 19, symbol J); type: in vivo, blackgrass (Alopecurus myosuroides)
Method in brief: as §3

Italian ryegrass [7] = experiment: Test Example 4: herbicidal effect by soil treatment (Table 19, symbol K); type: in vivo, Italian ryegrass (Lolium multiflorum)
Method in brief: as §3

windgrass [8] = experiment: Test Example 4: herbicidal effect by soil treatment (Table 19, symbol L); type: in vivo, windgrass (Apera spica-venti)
Method in brief: as §3

velvetleaf [9] = experiment: Test Example 4: herbicidal effect by soil treatment (Table 19, symbol M); type: in vivo, velvetleaf (Abutilon theophrasti)
Method in brief: as §3

lambsquarters [10] = experiment: Test Example 4: herbicidal effect by soil treatment (Table 19, symbol O); type: in vivo, lambsquarters (Chenopodium album)
Method in brief: as §3

chickweed [11] = experiment: Test Example 4: herbicidal effect by soil treatment (Table 19, symbol P); type: in vivo, common chickweed (Stellaria media)
Method in brief: as §3

persian speedwell [12] = experiment: Test Example 4: herbicidal effect by soil treatment (Table 19, symbol R); type: in vivo, Persian speedwell (Veronica persica)
Method in brief: as §3

southern crabgrass [13] = experiment: Test Example 5: herbicidal effect by foliage application, plastic box (Table 20, symbol F); type: in vivo, southern crabgrass (Digitaria ciliaris); settings: foliage application
Method in brief: (§4)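 Foliar spray test: emulsion formulation diluted in water to a set application rate, sprayed onto 14-day-old plants raised in diluvial soil at 25° C to 30° C under glass. Both herbicidal effect and crop effect rated visually three weeks later.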

green foxtail [14] = experiment: Test Example 5: herbicidal effect by foliage application, plastic box (Table 20, symbol G); type: in vivo, green foxtail (Setaria viridis); settings: foliage application
Method in brief: as §4

barnyard grass [15] = experiment: Test Example 5: herbicidal effect by foliage application, plastic box (Table 20, symbol H); type: in vivo, barnyard grass (Echinochloa crus-galli); settings: foliage application
Method in brief: as §4

wild oat [16] = experiment: Test Example 5: herbicidal effect by foliage application, plastic box (Table 20, symbol I); type: in vivo, wild oat (Avena fatua); settings: foliage application
Method in brief: as §4

blackgrass [17] = experiment: Test Example 5: herbicidal effect by foliage application, plastic box (Table 20, symbol J); type: in vivo, blackgrass (Alopecurus myosuroides); settings: foliage application
Method in brief: as §4

Italian ryegrass [18] = experiment: Test Example 5: herbicidal effect by foliage application, plastic box (Table 20, symbol K); type: in vivo, Italian ryegrass (Lolium multiflorum); settings: foliage application
Method in brief: as §4

windgrass [19] = experiment: Test Example 5: herbicidal effect by foliage application, plastic box (Table 20, symbol L); type: in vivo, windgrass (Apera spica-venti); settings: foliage application
Method in brief: as §4

velvetleaf [20] = experiment: Test Example 5: herbicidal effect by foliage application, plastic box (Table 20, symbol M); type: in vivo, velvetleaf (Abutilon theophrasti); settings: foliage application
Method in brief: as §4

redroot pigweed [21] = experiment: Test Example 5: herbicidal effect by foliage application, plastic box (Table 20, symbol N); type: in vivo, redroot pigweed (Amaranthus retroflexus); settings: foliage application, 176 g/ha, evaluated three weeks after application
Method in brief: as §4

lambsquarters [22] = experiment: Test Example 5: herbicidal effect by foliage application, plastic box (Table 20, symbol O); type: in vivo, lambsquarters (Chenopodium album); settings: foliage application
Method in brief: as §4

chickweed [23] = experiment: Test Example 5: herbicidal effect by foliage application, plastic box (Table 20, symbol P); type: in vivo, common chickweed (Stellaria media); settings: foliage application, 176 g/ha, evaluated three weeks after application
Method in brief: as §4

persian speedwell [24] = experiment: Test Example 5: herbicidal effect by foliage application, plastic box (Table 20, symbol R); type: in vivo, Persian speedwell (Veronica persica); settings: foliage application
Method in brief: as §4

redroot pigweed [25] = experiment: Test Example 4: herbicidal effect by soil treatment (Table 19, symbol N); type: in vivo, redroot pigweed (Amaranthus retroflexus); settings: amount of applied herbicide 320 g/ha
Method in brief: as §3

[26] = amount of applied herbicide 176 g/ha
[27] = 176 g/ha, evaluated three weeks after application
[28] = amount of applied herbicide 320 g/ha
[29] = 320 g/ha, three weeks after application

COc1ccccc1-c1sc2ccc(C)cc2c1-c1c(O)c(C)nn(C)c1=O [2-138]
Herbicidal effect on A: late watergrass (grade 0-5) (late watergrass; 176 g/ha applied herbicide): 5 (Herbicidal rate of 90% or more (almost completely withered)) | Herbicidal effect on B: Japanese bulrush (grade 0-5) (Japanese bulrush; 176 g/ha applied herbicide): 0 (Herbicidal rate of 5% or less (almost no effect)) | Herbicidal effect on C: oval-leafed pondweed (grade 0-5) (oval-leafed pondweed; 176 g/ha applied herbicide): 0 (Herbicidal rate of 5% or less (almost no effect)) | herbicidal effect on H: barnyard grass (barnyard grass [1]; [26]): 5 (Herbicidal rate of 90% or more (almost completely withered)) | herbicidal effect on D: Chinese sprangletop (Chinese sprangletop; [26]): 1 (Herbicidal rate of 5% or more and less than 20%) | herbicidal effect on E: rice flat sedge (rice flat sedge; [26]): 4 (Herbicidal rate of 70% or more and less than 90%) | F: southern crabgrass, herbicidal effect rating (southern crabgrass [2]; [26]): 0 (Herbicidal rate of 5% or less (almost no effect)) | G: green foxtail, herbicidal effect rating (green foxtail [3]; [26]): 4 (Herbicidal rate of 70% or more and less than 90%) | H: barnyard grass, herbicidal effect rating (barnyard grass [4]; [26]): 3 (Herbicidal rate of 40% or more and less than 70%) | I: wild oat, herbicidal effect rating (wild oat [5]; [26]): 0 (Herbicidal rate of 5% or less (almost no effect)) | J: blackgrass, herbicidal effect rating (blackgrass [6]; [26]): 3 (Herbicidal rate of 40% or more and less than 70%) | K: Italian ryegrass, herbicidal effect rating (Italian ryegrass [7]; [26]): 0 (Herbicidal rate of 5% or less (almost no effect)) | L: windgrass, herbicidal effect rating (windgrass [8]; [26]): 0 (Herbicidal rate of 5% or less (almost no effect)) | M: velvetleaf, herbicidal effect rating (velvetleaf [9]; [26]): 0 (Herbicidal rate of 5% or less (almost no effect)) | O: lambsquarters, herbicidal effect rating (lambsquarters [10]; [26]): 5 (Herbicidal rate of 90% or more (almost completely withered)) | P: chickweed, herbicidal effect rating (chickweed [11]; [26]): 0 (Herbicidal rate of 5% or less (almost no effect)) | R: persian speedwell, herbicidal effect rating (persian speedwell [12]; [26]): 0 (Herbicidal rate of 5% or less (almost no effect)) | herbicidal effect on F: southern crabgrass (southern crabgrass [13]; [27]): 3 (Herbicidal rate of 40% or more and less than 70%) | herbicidal effect on G: green foxtail (green foxtail [14]; [27]): 4 (Herbicidal rate of 70% or more and less than 90%) | herbicidal effect on H: barnyard grass (barnyard grass [15]; [27]): 4 (Herbicidal rate of 70% or more and less than 90%) | herbicidal effect on I: wild oat (wild oat [16]; [27]): 0 (Herbicidal rate of 5% or less (almost no effect)) | herbicidal effect on J: blackgrass (blackgrass [17]; [27]): 3 (Herbicidal rate of 40% or more and less than 70%) | herbicidal effect on K: Italian ryegrass (Italian ryegrass [18]; [27]): 3 (Herbicidal rate of 40% or more and less than 70%) | herbicidal effect on L: windgrass (windgrass [19]; [27]): 4 (Herbicidal rate of 70% or more and less than 90%) | herbicidal effect on M: velvetleaf (velvetleaf [20]; [27]): 5 (Herbicidal rate of 90% or more (almost completely withered)) | herbicidal effect on N: redroot pigweed (redroot pigweed [21]): 0 (Herbicidal rate of 5% or less (almost no effect)) | herbicidal effect on O: lambsquarters (lambsquarters [22]; [27]): 4 (Herbicidal rate of 70% or more and less than 90%) | herbicidal effect on P: chickweed (chickweed [23]): 5 (Herbicidal rate of 90% or more (almost completely withered)) | herbicidal effect on R: persian speedwell (persian speedwell [24]; [27]): 5 (Herbicidal rate of 90% or more (almost completely withered))

CCCC(=O)Oc1c(C)nn(C)c(=O)c1-c1c(-c2ccccc2OCC)sc2cc(OC)c(Cl)cc12 [5-073]
Herbicidal effect, A: late watergrass (late watergrass; [28]): 5 (Herbicidal rate of 90% or more (almost completely withered)) | Herbicidal effect, B: Japanese bulrush (Japanese bulrush; [28]): 4 (Herbicidal rate of 70% or more and less than 90%) | Herbicidal effect, C: oval-leafed pondweed (oval-leafed pondweed; [28]): 4 (Herbicidal rate of 70% or more and less than 90%) | herbicidal effect on barnyard grass (H) (barnyard grass [1]; 320 g/ha): 5 (Herbicidal rate of 90% or more (almost completely withered)) | herbicidal effect on Chinese sprangletop (D) (Chinese sprangletop; 320 g/ha): 0 (Herbicidal rate of 5% or less (almost no effect)) | herbicidal effect on rice flat sedge (E) (rice flat sedge; 320 g/ha): 0 (Herbicidal rate of 5% or less (almost no effect)) | F: southern crabgrass, herbicidal effect grade (southern crabgrass [2]; [28]): 0 (Herbicidal rate of 5% or less (almost no effect)) | G: green foxtail, herbicidal effect grade (green foxtail [3]; [28]): 2 (Herbicidal rate of 20% or more and less than 40%) | H: barnyard grass, herbicidal effect grade (barnyard grass [4]; [28]): 0 (Herbicidal rate of 5% or less (almost no effect)) | I: wild oat, herbicidal effect grade (wild oat [5]; [28]): 0 (Herbicidal rate of 5% or less (almost no effect)) | J: blackgrass, herbicidal effect grade (blackgrass [6]; [28]): 0 (Herbicidal rate of 5% or less (almost no effect)) | K: Italian ryegrass, herbicidal effect grade (Italian ryegrass [7]; [28]): 0 (Herbicidal rate of 5% or less (almost no effect)) | L: windgrass, herbicidal effect grade (windgrass [8]; [28]): 0 (Herbicidal rate of 5% or less (almost no effect)) | M: velvetleaf, herbicidal effect grade (velvetleaf [9]; [28]): 0 (Herbicidal rate of 5% or less (almost no effect)) | N: redroot pigweed, herbicidal effect grade (redroot pigweed [25]): 1 (Herbicidal rate of 5% or more and less than 20%) | O: lambsquarters, herbicidal effect grade (lambsquarters [10]; [28]): 0 (Herbicidal rate of 5% or less (almost no effect)) | P: chickweed, herbicidal effect grade (chickweed [11]; [28]): 0 (Herbicidal rate of 5% or less (almost no effect)) | R: persian speedwell, herbicidal effect grade (persian speedwell [12]; [28]): 0 (Herbicidal rate of 5% or less (almost no effect)) | herbicidal effect on southern crabgrass (F) (southern crabgrass [13]; [29]): 5 (Herbicidal rate of 90% or more (almost completely withered)) | herbicidal effect on green foxtail (G) (green foxtail [14]; [29]): 5 (Herbicidal rate of 90% or more (almost completely withered)) | herbicidal effect on barnyard grass (H) (barnyard grass [15]; [29]): 5 (Herbicidal rate of 90% or more (almost completely withered)) | herbicidal effect on wild oat (I) (wild oat [16]; [29]): 0 (Herbicidal rate of 5% or less (almost no effect)) | herbicidal effect on blackgrass (J) (blackgrass [17]; [29]): 0 (Herbicidal rate of 5% or less (almost no effect)) | herbicidal effect on Italian ryegrass (K) (Italian ryegrass [18]; [29]): 0 (Herbicidal rate of 5% or less (almost no effect)) | herbicidal effect on windgrass (L) (windgrass [19]; [29]): 3 (Herbicidal rate of 40% or more and less than 70%) | herbicidal effect on velvetleaf (M) (velvetleaf [20]; [29]): 4 (Herbicidal rate of 70% or more and less than 90%) | herbicidal effect on lambsquarters (O) (lambsquarters [22]; [29]): 4 (Herbicidal rate of 70% or more and less than 90%) | herbicidal effect on persian speedwell (R) (persian speedwell [24]; [29]): 0 (Herbicidal rate of 5% or less (almost no effect))
